Experimental data: publication PMC10035370, “Targeting Tumor Angiogenesis with the Selective VEGFR-3 Inhibitor EVT801 in Combination with Cancer Immunotherapy” (Cancer Research Communications, 2022)
pIC50: −log10 of the molar value.

How the values were obtained:
VEGFR-1 = target: T1, VEGFR-1 (Homo sapiens, UniProt P17948); test: Biochemical kinase assay (in vitro assay), VEGFR-1; details: read-out: IC50 in biochemical assays, VEGFR-1
T1 construct: The VEGFR-1 tyrosine kinase domain was obtained from Upstake; purchased Upstake (so in the source)
T1 sequence (P17948 827-1158 limits assumed): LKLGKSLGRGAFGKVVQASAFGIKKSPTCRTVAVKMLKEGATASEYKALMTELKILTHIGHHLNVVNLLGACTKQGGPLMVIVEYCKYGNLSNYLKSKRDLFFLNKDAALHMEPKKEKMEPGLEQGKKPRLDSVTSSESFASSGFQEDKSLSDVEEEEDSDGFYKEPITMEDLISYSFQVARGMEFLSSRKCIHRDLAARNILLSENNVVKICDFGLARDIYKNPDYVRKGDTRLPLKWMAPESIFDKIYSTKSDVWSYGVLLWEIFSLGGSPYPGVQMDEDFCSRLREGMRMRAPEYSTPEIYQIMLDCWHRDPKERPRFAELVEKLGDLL
Procedure: (§1) Sigma protein kinase assay kits were used. 125 μL per well of Poly-Glu-Tyr (PGT) solution (250 μg/mL of PGT in PBS without Ca^2+, Mg^2+ and sodium bicarbonate) was added in a 96-well plate and overnight incubation was performed at 37 °C. The day after, coating solution was removed and wells were washed with 300 μL of PBS-Tween-20 0.05 %. The washing buffer was removed and wells were dried for 2 h at 37 °C. 90 μL of the kinase buffer was supplemented with ATP (30 μM for VEGFR-1 and VEGFR-3, and 15 μM for VEGFR-2), and the compound (EVT801 or SAR401849 at the indicated concentration or 1 % DMSO for the vehicle control). The phosphorylation reaction was initiated by the addition of 20 μL of kinase buffer without ATP supplemented with 100 ng of the tyrosine kinase (or without tyrosine kinase as control). Plates were incubated with gentle agitation at room temperature for 30 min. After 3 washes with 300 μL of washing buffer, 100 μL of phosphotyrosine specific monoclonal antibody conjugated to HRP (1:30,000) was added onto the phosphorylated PGT. Plates were incubated for 30 min at room temperature under gentle agitation. Then, 3 washes with 300 μL of washing buffer were performed. […] After 7 min at room temperature, the reaction was stopped by addition of 100 μL of […], and absorbance was determined with an Endvision spectrophotometer at 492 nm.

VEGFR-3 = VEGFR-3 (Homo sapiens, UniProt P35916); test: Biochemical kinase assay (in vitro assay), VEGFR-3; design: expressed in transfected cells; host or cells: HEK293T; details: read-out: IC50 in biochemical assays, VEGFR-3
Chain of VEGFR-3 (P35916 25-1363): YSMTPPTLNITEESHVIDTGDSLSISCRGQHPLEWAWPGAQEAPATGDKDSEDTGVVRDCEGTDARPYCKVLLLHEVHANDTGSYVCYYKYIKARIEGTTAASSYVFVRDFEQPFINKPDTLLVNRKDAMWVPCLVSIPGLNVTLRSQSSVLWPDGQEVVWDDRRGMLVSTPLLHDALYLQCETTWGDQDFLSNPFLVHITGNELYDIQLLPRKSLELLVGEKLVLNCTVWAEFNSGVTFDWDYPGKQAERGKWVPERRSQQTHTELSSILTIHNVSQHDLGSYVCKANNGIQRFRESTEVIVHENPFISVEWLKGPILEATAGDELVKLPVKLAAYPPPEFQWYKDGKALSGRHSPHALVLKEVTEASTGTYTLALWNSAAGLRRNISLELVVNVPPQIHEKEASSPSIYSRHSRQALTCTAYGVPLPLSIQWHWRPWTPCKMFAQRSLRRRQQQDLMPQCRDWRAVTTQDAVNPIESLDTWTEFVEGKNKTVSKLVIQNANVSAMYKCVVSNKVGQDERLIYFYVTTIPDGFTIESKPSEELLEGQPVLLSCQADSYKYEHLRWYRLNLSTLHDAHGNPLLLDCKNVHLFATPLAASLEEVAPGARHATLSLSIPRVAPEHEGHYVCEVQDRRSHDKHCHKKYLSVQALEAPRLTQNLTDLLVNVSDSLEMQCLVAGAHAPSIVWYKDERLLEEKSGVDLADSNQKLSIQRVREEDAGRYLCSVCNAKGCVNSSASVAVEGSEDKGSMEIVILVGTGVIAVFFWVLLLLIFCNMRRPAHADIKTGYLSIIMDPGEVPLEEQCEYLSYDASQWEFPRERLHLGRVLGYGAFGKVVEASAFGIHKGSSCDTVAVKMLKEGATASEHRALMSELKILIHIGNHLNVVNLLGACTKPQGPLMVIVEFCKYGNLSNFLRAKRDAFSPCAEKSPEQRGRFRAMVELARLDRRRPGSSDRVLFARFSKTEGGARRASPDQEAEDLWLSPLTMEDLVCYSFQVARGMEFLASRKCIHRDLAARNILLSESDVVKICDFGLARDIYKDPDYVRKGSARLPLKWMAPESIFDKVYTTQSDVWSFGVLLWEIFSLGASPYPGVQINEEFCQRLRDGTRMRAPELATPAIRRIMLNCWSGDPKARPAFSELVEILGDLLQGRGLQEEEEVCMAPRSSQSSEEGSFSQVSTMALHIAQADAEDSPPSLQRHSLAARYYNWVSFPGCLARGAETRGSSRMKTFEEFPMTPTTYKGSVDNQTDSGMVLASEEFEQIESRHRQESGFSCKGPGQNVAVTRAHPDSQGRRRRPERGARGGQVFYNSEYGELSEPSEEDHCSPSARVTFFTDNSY
Procedure: as §1

tubule formation = test: Mouse aortic ring assay stimulated by a 4T1 tumor fragment; format: cell-based; details: 300 nM, day 8
Procedure: Neo-angiogenesis was studied in vitro by culturing rings of mouse thoracic aorta in 3-dimensional collagen gels, as previously described (2), but the mouse serum was replaced by a piece of 4T1 tumor. Briefly, 1 mm-long aortic ring-shaped fragments of 9-week old C57Bl/6J mice, and 1 mm^3 4T1 tumor pieces resected 21 days after orthotopic injection in mammary fat pad of BALB/c mice were embedded in a rat tail interstitial collagen gel (1.5 mg/mL). It was prepared by mixing 7.5 volumes of 2 mg/mL collagen (Collagen R, Serva), 1 volume of 10 x minimum essential medium (MEM, Life Technologies Ltd.), 1.5 volumes of NaHCO3 (15.6 mg/mL), and 0.1 volume 1 M NaOH to adjust the pH to 7.4. The collagen gels containing the aortic rings were polymerized in cylindrical agarose wells, and kept in triplicate at 37 °C in 60 mm diameter Petri dishes (bacteriological polystyrene; Falcon, Becton Dickinson). Each dish contained 6 mL of MCDB131 (Life Technologies Ltd.) supplemented with 25 mM NaHCO3, 1 % glutamine, 100 U/mL penicillin, and 100 µg/mL streptomycin. The cultures were kept at 37 °C in a humidified environment for 8 days and examined every other day with a Nikon microscope at appropriate magnification. […] Quantification of pseudo-tubules was performed at day 8 using an automated computer-assisted image analysis system (Morpho Expert V2.50, Explora Nova, La Rochelle, France). […]

Rip1-Tag2 tumors = test: Rip1-Tag2 transgenic mouse model; format: in vivo, mice
Procedure: The Rip1-Tag2/transgenic mouse models were used as reported previously ([29]). Briefly, treatment of mice started at the age of 12 weeks. Mice were treated daily for 16 days, and volume of each tumor was measured and calculated as described for the 4T1 mammary carcinoma mouse model below. The tumor burden was calculated as the sum of individual tumor volumes for each mouse. For the survival study, daily treatment started at the age of 12 weeks, and mice were monitored daily to detect moribund mice for euthanasia. CD31-positive vessel density within the tumors were quantified by density index (1 vessel/mm^2) measured using the Definiens software. Individual density indices were plotted as the mean ± SD for each group. Statistical significance was assessed by Kruskall–Wallis followed by Dunnet multiple comparison test.

## CCn1c(N)c(-c2ncc[nH]2)c(=O)c2ccc(C#C[C@@](C)(O)COC)nc21 [EVT801]
VEGFR-1
  pIC50: 6.40
VEGFR-3
  pIC50: 7.96
Tubule formation
  tubule formation (tubule length): prevents tumor-induced tubule formation almost completely
Rip1-Tag2 tumors; 30 mg/kg/day, 2 weeks
  T/C ratio, tumor volume: 63%
  average number of tumors per pancreas: three
  reduction in tumor volume: 37%
  reduction of number of pancreatic tumors: 67%
Rip1-Tag2 tumors; 100 mg/kg/day, 2 weeks
  T/C ratio, tumor volume: 16%
  reduction of number of pancreatic tumors: 91%
Rip1-Tag2 tumors; 30 and 100 mg/kg/day
  overall survival of the mice: dose-dependently increased
